Assay results taken from the OligoGym collection.
Several values for one entry are separate records, joined by “and”; a condition that tells them apart may be missing. Equal values may be shown once. HELM strings list units from the 5' end as sugar, base in round brackets, then linkage (d deoxyribose, r ribose, m 2'-O-methyl, p phosphodiester). Strings are as the collection lists them, not checked against the first reports. ss, as = sense and antisense strand; [lna] = locked nucleic acid (LNA); [una] = unlocked nucleic acid; [s4r] = 4'-thioribose; [fl2r] = 2'-fluoro

Conditions: siRNA
Further: test system not given here.

Substance	target mRNA knockdown
RNA1{[lna](T)p.r(G)p.[lna](A)p.r(G)p.[lna](A)p.r(G)p.r(A)p.r(A)p.[lna](A)p.r(G)p.r(C)p.[lna](A)p.r(C)p.[lna](A)p.r(G)p.r(A)p.[lna](A)p.r(A)p.r(A)p.[lna](T)p.[lna](T)}|RNA2{r(U)p.r(G)p.r(A)p.r(G)p.r(A)p.r(G)p.r(A)p.r(A)p.r(A)p.r(G)p.r(C)p.r(A)p.r(C)p.r(A)p.r(G)p.r(A)p.r(A)p.r(A)p.r(A)p.d(T)p.d(T)}$$$RNA1{StrandType:ss}|RNA2{StrandType:as}$	64%
RNA1{r(A)p.r(A)p.r(C)p.r(U)p.r(C)p.m(U)p.r(A)p.r(C)p.m(U)p.r(G)p.m(U)p.r(G)p.r(G)p.r(A)p.r(G)p.r(U)p.r(C)p.r(G)p.r(G)p.r(T)p.r(T)}|RNA2{r(C)p.r(C)p.r(G)p.r(A)p.r(C)p.r(U)p.r(C)p.m(C)p.r(A)p.r(C)p.r(A)p.r(G)p.m(U)p.r(A)p.r(G)p.r(A)p.r(G)p.r(U)p.r(U)p.r(T)p.r(T)}$$$RNA1{StrandType:ss}|RNA2{StrandType:as}$	68%
RNA1{r(A)p.r(A)p.r(G)p.m(G)p.m(A)p.r(G)p.r(A)p.r(U)p.m(C)p.m(A)p.m(A)p.r(C)p.r(A)p.r(U)p.m(U)p.m(U)p.r(U)p.r(C)p.r(A)p.r(T)p.r(T)}|RNA2{m(U)p.m(G)p.m(A)p.r(A)p.r(A)p.m(A)p.m(U)p.m(G)p.r(U)p.r(U)p.r(G)p.m(A)p.m(U)p.m(C)p.r(U)p.r(C)p.m(C)p.m(U)p.m(U)p.r(T)p.r(T)}$$$RNA1{StrandType:ss}|RNA2{StrandType:as}$	38%
RNA1{r(C)p.r(U)p.r(U)p.r(A)p.r(C)p.r(G)p.r(C)p.r(U)p.r(G)p.r(A)p.r(G)p.r(U)p.r(A)p.r(C)p.r(U)p.r(U)p.r(C)p.r(G)p.r(A)p.r(T)p.r(T)}|RNA2{r(T)p.r(C)p.r(G)p.r(A)p.r(A)p.r(G)p.r(U)p.r(A)p.r(C)p.r(U)p.r(C)p.[lna](A)p.r(G)p.r(C)p.r(G)p.r(U)p.r(A)p.r(A)p.r(G)p.[lna](T)p.[lna](T)}$$$RNA1{StrandType:ss}|RNA2{StrandType:as}$	70% and 94%
RNA1{r(C)p.r(G)p.r(G)p.r(A)p.r(U)p.r(C)p.m(U)p.m(A)p.m(C)p.r(A)p.r(C)p.r(C)p.r(U)p.r(U)p.m(C)p.r(A)p.r(A)p.r(G)p.r(A)p.r(T)p.r(T)}|RNA2{r(U)p.r(C)p.r(U)p.m(U)p.r(G)p.r(A)p.r(A)p.r(G)p.r(G)p.m(U)p.r(G)p.m(U)p.r(A)p.r(G)p.r(A)p.r(U)p.r(C)p.r(C)p.r(G)p.r(T)p.r(T)}$$$RNA1{StrandType:ss}|RNA2{StrandType:as}$	40%
RNA1{[fl2r](G)p.r(G)p.[fl2r](A)p.r(A)p.[fl2r](G)p.r(A)p.[fl2r](A)p.r(G)p.[fl2r](A)p.r(U)p.[fl2r](A)p.r(G)p.[fl2r](A)p.r(G)p.[fl2r](C)p.r(A)p.[fl2r](U)p.r(C)p.[fl2r](C)p.r(T)p.r(T)}|RNA2{r(G)p.r(G)p.r(A)p.[fl2r](U)p.r(G)p.r(C)p.r(U)p.r(C)p.[fl2r](U)p.r(A)p.r(U)p.r(C)p.r(U)p.r(U)p.r(C)p.r(U)p.r(U)p.r(C)p.r(C)p.r(T)p.r(T)}$$$RNA1{StrandType:ss}|RNA2{StrandType:as}$	13%
RNA1{[lna](G)p.r(C)p.r(A)p.r(G)p.r(C)p.r(A)p.r(C)p.r(G)p.r(A)p.r(C)p.r(U)p.r(U)p.r(C)p.r(U)p.r(U)p.r(C)p.r(A)p.r(A)p.r(G)p.r(U)p.r(U)}|RNA2{r(C)p.[fl2r](U)p.r(U)p.r(G)p.r(A)p.r(A)p.r(G)p.r(A)p.r(A)p.r(G)p.r(U)p.r(C)p.r(G)p.r(U)p.r(G)p.r(C)p.r(U)p.r(G)p.r(C)p.r(U)p.r(U)}$$$RNA1{StrandType:ss}|RNA2{StrandType:as}$	69.3%
RNA1{r(U)p.r(C)p.r(C)p.r(U)p.r(C)p.r(G)p.r(U)p.m(C)p.r(G)p.r(U)p.r(C)p.m(U)p.r(G)p.r(U)p.r(U)p.r(C)p.m(U)p.r(A)p.r(A)p.r(T)p.r(T)}|RNA2{r(U)p.m(U)p.r(A)p.r(G)p.r(A)p.r(A)p.m(C)p.r(A)p.r(G)p.r(A)p.r(C)p.r(G)p.r(A)p.r(C)p.r(G)p.r(A)p.r(G)p.r(G)p.r(A)p.r(T)p.r(T)}$$$RNA1{StrandType:ss}|RNA2{StrandType:as}$	82%
RNA1{r(G)p.r(A)p.r(A)p.r(G)p.r(A)p.r(G)p.r(C)p.r(C)p.m(U)p.r(A)p.m(C)p.r(A)p.r(C)p.r(A)p.r(A)p.r(C)p.r(C)p.r(C)p.r(U)p.r(T)p.r(T)}|RNA2{r(A)p.r(G)p.r(G)p.r(G)p.r(U)p.r(U)p.r(G)p.m(U)p.r(G)p.m(U)p.r(A)p.r(G)p.r(G)p.r(C)p.r(U)p.r(C)p.r(U)p.r(U)p.r(C)p.r(T)p.r(T)}$$$RNA1{StrandType:ss}|RNA2{StrandType:as}$	76%
RNA1{r(G)p.r(C)p.r(U)p.r(U)p.m(U)p.m(A)p.r(A)p.r(G)p.r(G)p.r(A)p.r(A)p.r(C)p.m(U)p.r(G)p.r(G)p.r(A)p.r(A)p.r(G)p.r(G)p.r(T)p.r(T)}|RNA2{r(C)p.r(C)p.r(U)p.r(U)p.r(C)p.m(C)p.r(A)p.r(G)p.r(U)p.r(U)p.r(C)p.r(C)p.r(U)p.m(U)p.m(A)p.r(A)p.r(A)p.r(G)p.r(C)p.r(T)p.r(T)}$$$RNA1{StrandType:ss}|RNA2{StrandType:as}$	72%
RNA1{r(C)p.r(C)p.r(G)p.r(A)p.r(G)p.r(A)p.r(G)p.m(C)p.r(U)p.r(C)p.m(U)p.r(C)p.r(C)p.m(U)p.r(A)p.r(C)p.r(C)p.r(U)p.r(U)p.r(T)p.r(T)}|RNA2{r(A)p.r(A)p.r(G)p.r(G)p.m(U)p.r(A)p.r(G)p.r(G)p.r(A)p.r(G)p.r(A)p.r(G)p.r(C)p.r(U)p.r(C)p.r(U)p.r(C)p.r(G)p.r(G)p.r(T)p.r(T)}$$$RNA1{StrandType:ss}|RNA2{StrandType:as}$	72%
RNA1{[s4r](A)p.[s4r](A)p.[s4r](A)p.[s4r](C)p.r(A)p.r(U)p.r(G)p.r(C)p.r(A)p.r(G)p.r(A)p.r(A)p.r(A)p.r(A)p.r(U)p.[s4r](G)p.[s4r](C)p.[s4r](C)p.[s4r](U)p.r(T)p.r(T)}|RNA2{r(C)p.r(A)p.r(G)p.r(C)p.r(A)p.r(U)p.r(U)p.r(U)p.r(U)p.r(C)p.r(U)p.r(G)p.r(C)p.r(A)p.r(U)p.[s4r](G)p.[s4r](U)p.[s4r](U)p.[s4r](U)p.r(T)p.r(T)}$$$RNA1{StrandType:ss}|RNA2{StrandType:as}$	87.3%
RNA1{r(G)p.r(C)p.r(U)p.r(U)p.r(C)p.r(G)p.r(G)p.r(A)p.r(A)p.r(A)p.r(C)p.r(U)p.r(G)p.r(G)p.r(A)p.[fl2r](C)p.r(A)p.r(U)p.r(C)p.r(T)p.r(T)}|RNA2{r(G)p.r(A)p.[fl2r](U)p.r(G)p.r(U)p.r(C)p.[fl2r](C)p.r(A)p.r(G)p.r(U)p.r(U)p.r(U)p.r(C)p.r(C)p.r(G)p.r(A)p.r(A)p.r(G)p.r(C)p.r(T)p.r(T)}$$$RNA1{StrandType:ss}|RNA2{StrandType:as}$	90%
RNA1{r(U)p.m(U)p.r(G)p.r(G)p.r(G)p.r(G)p.r(A)p.r(A)p.r(G)p.r(C)p.r(G)p.r(G)p.r(C)p.r(C)p.r(G)p.r(G)p.r(C)p.r(G)p.r(G)p.r(T)p.r(T)}|RNA2{r(C)p.r(C)p.r(G)p.r(C)p.r(C)p.r(G)p.r(G)p.r(C)p.r(C)p.r(G)p.r(C)p.r(U)p.r(U)p.r(C)p.r(C)p.r(C)p.m(C)p.r(A)p.r(A)p.r(T)p.r(T)}$$$RNA1{StrandType:ss}|RNA2{StrandType:as}$	82%
RNA1{[s4r](C)p.r(G)p.r(U)p.r(A)p.[s4r](C)p.r(G)p.[s4r](C)p.r(G)p.r(G)p.r(A)p.r(A)p.r(U)p.r(A)p.[s4r](C)p.r(U)p.r(U)p.[s4r](C)p.r(G)p.r(A)p.r(T)p.r(T)}|RNA2{r(U)p.r(C)p.r(G)p.r(A)p.r(A)p.r(G)p.r(U)p.r(A)p.r(U)p.r(U)p.r(C)p.r(C)p.r(G)p.r(C)p.r(G)p.r(U)p.r(A)p.r(C)p.r(G)p.r(T)p.r(T)}$$$RNA1{StrandType:ss}|RNA2{StrandType:as}$	93.6%
RNA1{[fl2r](A)p.r(C)p.[fl2r](G)p.r(G)p.[fl2r](C)p.r(U)p.[fl2r](C)p.r(G)p.[fl2r](C)p.r(U)p.[fl2r](A)p.r(C)p.[fl2r](C)p.r(C)p.[fl2r](U)p.r(C)p.[fl2r](G)p.r(A)p.r(C)p.r(T)p.r(T)}|RNA2{r(G)p.r(U)p.r(C)p.r(G)p.r(A)p.r(G)p.r(G)p.r(G)p.r(U)p.r(A)p.r(G)p.r(C)p.r(G)p.r(A)p.r(G)p.r(C)p.r(C)p.r(G)p.r(U)p.r(T)p.r(T)}$$$RNA1{StrandType:ss}|RNA2{StrandType:as}$	72%
RNA1{r(G)p.r(A)p.r(A)p.r(A)p.r(C)p.r(U)p.r(G)p.r(G)p.r(U)p.r(A)p.r(C)p.r(U)p.r(U)p.r(U)p.r(C)p.r(C)p.r(C)p.r(C)p.r(C)p.r(T)p.r(T)}|RNA2{r(G)p.r(G)p.r(G)p.r(G)p.r(G)p.r(A)p.r(A)p.r(A)p.r(G)p.[fl2r](U)p.r(A)p.r(C)p.r(C)p.r(A)p.r(G)p.[fl2r](U)p.[fl2r](U)p.[fl2r](U)p.r(C)p.r(T)p.r(T)}$$$RNA1{StrandType:ss}|RNA2{StrandType:as}$	26%
RNA1{r(C)p.r(G)p.r(U)p.r(A)p.r(C)p.r(G)p.r(C)p.r(G)p.r(G)p.r(A)p.r(A)p.r(U)p.r(A)p.r(C)p.r(U)p.r(U)p.r(C)p.[s4r](G)p.[s4r](A)p.r(T)p.r(T)}|RNA2{r(U)p.r(C)p.r(G)p.r(A)p.r(A)p.r(G)p.r(U)p.r(A)p.r(U)p.r(U)p.r(C)p.r(C)p.r(G)p.r(C)p.r(G)p.r(U)p.r(A)p.r(C)p.r(G)p.r(T)p.r(T)}$$$RNA1{StrandType:ss}|RNA2{StrandType:as}$	95.4%
RNA1{r(C)p.r(G)p.r(U)p.r(A)p.r(C)p.r(G)p.r(C)p.r(G)p.r(G)p.r(A)p.r(A)p.r(U)p.r(A)p.m(C)p.m(U)p.m(U)p.m(C)p.m(G)p.m(A)p.r(T)p.r(T)}|RNA2{r(U)p.r(C)p.r(G)p.r(A)p.r(A)p.r(G)p.r(U)p.r(A)p.r(U)p.r(U)p.r(C)p.r(C)p.r(G)p.r(C)p.r(G)p.r(U)p.r(A)p.r(C)p.r(G)p.r(T)p.r(T)}$$$RNA1{StrandType:ss}|RNA2{StrandType:as}$	94.2%
RNA1{r(C)p.r(U)p.r(A)p.r(A)p.r(G)p.r(G)p.r(A)p.r(C)p.r(C)p.r(U)p.r(A)p.r(A)p.r(C)p.r(A)p.r(A)p.r(A)p.r(G)p.r(U)p.[una](U)p.r(U)p.r(U)}|RNA2{r(A)p.r(A)p.r(C)p.r(U)p.r(U)p.r(U)p.r(G)p.r(U)p.r(U)p.r(A)p.r(G)p.r(G)p.r(U)p.r(C)p.r(C)p.r(U)p.r(U)p.r(A)p.r(G)p.r(U)p.r(U)}$$$RNA1{StrandType:ss}|RNA2{StrandType:as}$	60%
